Source: patent publication US20040009511A1, “Identification of compounds which stimulate bone formation using a cell-based screening assay targeting BMP signaling” (priority 2002, published 2004)

Experiments:
Assay type in all cases: cell-based
[1] = tested on: 9×SBE-6×OSE2-OC-luc reporter construct in 2T3 C-17 cells; assay: Luciferase assay, 9×SBE-6×OSE2-OC-luc reporter stably transfected in 2T3 clone C-17; design: Luciferase Activity: unit not given here; settings: for Luciferase Activity / Luciferase Activity (fold increase) / Effect on luciferase activity of the reporter construct / Luciferase Activity, value in parentheses (fold increase): 24 hours; for Maximal effect, fold increase in luciferase activity: over the concentrations tested
Experimental: (§1) An oligonucleotide containing 9 copies of Smad1 response element (9×SBE) and 6 copies of Cbfa1 response element (6×OSE2) was synthesized in the DNA laboratory at University of Texas Health Science Center at San Antonio. The osteocalcin basal promoter (OC, −155/+1) was amplified by Polymerase Chain Reaction (PCR) using mouse genomic DNA as a template and cloned into pGL3 vector. An 9×SBE-6×OSE2 oligonucleotide was cloned upstream of osteocalcin basal promoter.
(§2) C2C12 and 2T3 cells were plated in 6-well culture plates at densities of 4×10^5 and 2×10^5 cells/well and cultured with DMEM or α minimal essential medium (α MEM) supplemented with 10% FCS for 24 hours. A 9×SBE-6×OSE2-OC-luc-reporter construct (2 μg/well) was co-transfected with pcDNA3 empty vector (0.2 mg/well) in C2C12 and 2T3 cells using lipofactamine plus reagents (Gibco/BRL). Forty eight hours later, G418 (200 μg/ml) was added to the culture plates. Four weeks after G418 selection, the G418 resistant cells were plated in 96-well plates at the density of 1 cell/well and cloned by limiting dilution method.
(§3) C2C12 and 2T3 cells, in which 9×SBE-6×OSE2-OC-luc-reporter construct was stably transfected, were plated in 96-well culture plates at densities of 1×10^4 and 0.5×10^4 cells/well and cultured for 24 hours. The medium was changed to fresh medium supplemented with 2% FCS and different growth factors or hormone were added to culture medium for 24 hours or different compounds were added to culture medium for 2, 6, 12, 24 and 48 hours. The cell lysates were extracted and luciferase activities were determined by luciferase assay kit (Promega, Madison, Wis.) using a Luminometer.
(§4) At the end of the incubation, the cell lysates were extracted using lysis buffer and luciferase activities were measured using a luciferase assay kit (Promega).

[2] = tested on: 9×SBE-6×OSE2-OC-luc reporter construct in C2C12 C-10-62 cells; assay: Luciferase assay, 9×SBE-6×OSE2-OC-luc reporter stably transfected in C2C12 clone C-10-62; settings: for Maximal effect, fold increase in luciferase activity: over the concentrations tested; for Effect on luciferase activity of the reporter construct: 24 hours
Experimental: as §1, §2, §3, §4

[3] = tested on: 9×SBE-6×OSE2-OC-luc reporter construct; assay: Luciferase assay, 9×SBE-6×OSE2-OC-luc reporter construct, cells not specified
Text: as §1, §3
Further, a reporter construct which contains multiple copies of both Smad1 (SBE) and Cbfa1 (OSE2) response elements (9×SBE-6×OSE2-OC-luc) was made.

[4] = 2-ME 1.25 μM, 2T3 cell clone 17
[5] = 9-cis RA 1.25 μM, 2T3 cell clone 17
[6] = 9-cis RA 2.5 μM, 2T3 cell clone 17
[7] = 9-cis RA 5 μM, 2T3 cell clone 17
[8] = 9-cis RA 10 μM, 2T3 cell clone 17
[9] = All-trans RA 1.25 μM, 2T3 cell clone 17
[10] = All-trans RA 2.5 μM, 2T3 cell clone 17
[11] = All-trans RA 5 μM, 2T3 cell clone 17
[12] = All-trans RA 10 μM, 2T3 cell clone 17
[13] = TN-16 0.039 μM, 2T3 cell clone 17
[14] = TN-16 0.078 μM, 2T3 cell clone 17
[15] = TN-16 0.156 μM, 2T3 cell clone 17
[16] = TN-16 0.3125 μM, 2T3 cell clone 17
[17] = TN-16 0.625 μM, 2T3 cell clone 17
[18] = TN-16 1.25 μM, 2T3 cell clone 17
[19] = TN-16 2.5 μM, 2T3 cell clone 17

COc1cc2c(cc1O)CC[C@@H]1[C@@H]2CC[C@]2(C)[C@@H](O)CC[C@@H]12 [2-ME, 2-methoxyestradiol, reference compound]
Luciferase Activity ([1]; 2-ME 0.625 μM, 2T3 cell clone 17): 0.052
Luciferase Activity [1, 4]: 0.059
Luciferase Activity (fold increase) [1, 4]: 1.2 fold
Luciferase Activity ([1]; 2-ME 2.5 μM, 2T3 cell clone 17): 0.065
Luciferase Activity (fold increase) ([1]; 2-ME 2.5 μM, 2T3 cell clone 17): 1.3 fold
Luciferase Activity ([1]; 2-ME 5 μM, 2T3 cell clone 17): 0.102
Luciferase Activity (fold increase) ([1]; 2-ME 5 μM, 2T3 cell clone 17): 2.0 fold
Luciferase Activity ([1]; 2-ME 10 μM, 2T3 cell clone 17): 0.130
Luciferase Activity (fold increase) ([1]; 2-ME 10 μM, 2T3 cell clone 17): 2.6 fold
Effect on luciferase activity of the reporter construct ([1]; 2T3 C-17 cells): stimulated the reporter construct in a dose-dependent manner

CC1=C(/C=C/C(C)=C\C=C\C(C)=C\C(=O)O)C(C)(C)CCC1 [9-cis RA, 9-cis retinoic acid, reference compound]
Maximal effect, fold increase in luciferase activity [2]: 5 fold
Maximal effect, fold increase in luciferase activity ([1]; 2T3 C-17 cells): 5 fold
Luciferase Activity [1, 5]: 0.160
Luciferase Activity, value in parentheses (fold increase) [1, 5]: 3.6 fold
Luciferase Activity [1, 6]: 0.160
Luciferase Activity, value in parentheses (fold increase) [1, 6]: 3.6 fold
Luciferase Activity [1, 7]: 0.164
Luciferase Activity, value in parentheses (fold increase) [1, 7]: 3.6 fold
Luciferase Activity [1, 8]: 0.226
Luciferase Activity, value in parentheses (fold increase) [1, 8]: 5.0 fold

CC1=C(/C=C/C(C)=C/C=C/C(C)=C/C(=O)O)C(C)(C)CCC1 [All-trans RA, all-trans retinoic acid, reference compound]
Maximal effect, fold increase in luciferase activity [2]: 5 fold
Maximal effect, fold increase in luciferase activity ([1]; 2T3 C-17 cells): 5 fold
Luciferase Activity [1, 9]: 0.113
Luciferase Activity, value in parentheses (fold increase) [1, 9]: 2.5 fold
Luciferase Activity [1, 10]: 0.142
Luciferase Activity, value in parentheses (fold increase) [1, 10]: 3.2 fold
Luciferase Activity [1, 11]: 0.164
Luciferase Activity, value in parentheses (fold increase) [1, 11]: 3.6 fold
Luciferase Activity [1, 12]: 0.219
Luciferase Activity, value in parentheses (fold increase) [1, 12]: 4.9 fold

CC(Nc1ccccc1)=C1C(=O)NC(Cc2ccccc2)C1=O (centres unmarked) [TN-16, reference compound]
Effect on luciferase activity of the reporter construct ([1]; 2T3 C-17 cells): stimulated the reporter construct in a dose-dependent manner
Maximal effect, fold increase in luciferase activity ([1]; 2T3 C-17 cells): 5 fold
Luciferase Activity [1, 13]: 0.022
Luciferase Activity (fold increase) [1, 13]: 0.9 fold
Luciferase Activity [1, 14]: 0.037
Luciferase Activity (fold increase) [1, 14]: 1.6 fold
Luciferase Activity [1, 15]: 0.036
Luciferase Activity (fold increase) [1, 15]: 1.6 fold
Luciferase Activity [1, 16]: 0.038
Luciferase Activity (fold increase) [1, 16]: 1.6 fold
Luciferase Activity [1, 17]: 0.057
Luciferase Activity (fold increase) [1, 17]: 2.5 fold
Luciferase Activity [1, 18]: 0.081
Luciferase Activity (fold increase) [1, 18]: 3.5 fold
Luciferase Activity [1, 19]: 0.079
Luciferase Activity (fold increase) [1, 19]: 3.4 fold
Luciferase Activity ([1]; TN-16 5 μM, 2T3 cell clone 17): 0.111
Luciferase Activity (fold increase) ([1]; TN-16 5 μM, 2T3 cell clone 17): 4.8 fold
Luciferase Activity ([1]; TN-16 10 μM, 2T3 cell clone 17): 0.098
Luciferase Activity (fold increase) ([1]; TN-16 10 μM, 2T3 cell clone 17): 4.2 fold

TGF-β
Effect on luciferase activity of the reporter construct [2]: no significant effects
Luciferase activity normalized to protein content ([1]; 2T3 C-17 cells): no significant effect
Maximal effect, fold increase in luciferase activity ([1]; 2T3 C-17 cells): 3 fold
Luciferase Activity ([1]; TGF-β 0.0195 ng/ml, 2T3 C-17 cells): 0.046
Luciferase Activity ([1]; TGF-β 0.039 ng/ml, 2T3 C-17 cells): 0.052
Luciferase Activity ([1]; TGF-β 0.078 ng/ml, 2T3 C-17 cells): 0.053
Luciferase Activity ([1]; TGF-β 0.156 ng/ml, 2T3 C-17 cells): 0.062
Luciferase Activity ([1]; TGF-β 0.3125 ng/ml, 2T3 C-17 cells): 0.08
Luciferase Activity ([1]; TGF-β 0.625 ng/ml, 2T3 C-17 cells): 0.09
Luciferase Activity ([1]; TGF-β 1.25 ng/ml, 2T3 C-17 cells): 0.102
Luciferase Activity ([1]; TGF-β 2.5 ng/ml, 2T3 C-17 cells): 0.156
Luciferase Activity ([1]; TGF-β 5 ng/ml, 2T3 C-17 cells): 0.077
Luciferase Activity ([1]; TGF-β 10 ng/ml, 2T3 C-17 cells): 0.081

acid FGF: Acidic Fibroblast Growth Factor
Effect on luciferase activity of the reporter construct [2]: no significant effects
Luciferase Activity ([1]; acid FGF 0.195 ng/ml, 2T3 C-17 cells): 0.06
Luciferase Activity ([1]; acid FGF 0.39 ng/ml, 2T3 C-17 cells): 0.057
Luciferase Activity ([1]; acid FGF 0.78 ng/ml, 2T3 C-17 cells): 0.058
Luciferase Activity ([1]; acid FGF 1.56 ng/ml, 2T3 C-17 cells): 0.051
Luciferase Activity ([1]; acid FGF 3.125 ng/ml, 2T3 C-17 cells): 0.052
Luciferase Activity ([1]; acid FGF 6.25 ng/ml, 2T3 C-17 cells): 0.054
Luciferase Activity ([1]; acid FGF 12.5 ng/ml, 2T3 C-17 cells): 0.051
Luciferase Activity ([1]; acid FGF 25 ng/ml, 2T3 C-17 cells): 0.052
Luciferase Activity ([1]; acid FGF 50 ng/ml, 2T3 C-17 cells): 0.058
Luciferase Activity ([1]; acid FGF 100 ng/ml, 2T3 C-17 cells): 0.075

B1: noggin: BMP binding protein noggin (protein, UniProt Q13253 28-232, looked up)
Noggin: QHYLHIRPAPSDNLPLVDLIEHPDPIFDPKEKDLNETLLRSLLGGHYDPGFMATSPPEDRPGGGGGAAGGAEDLAELDQLLRQRPSGAMPSEIKGLEFSEGLAQGKKQRLSKKLRRKLQMWLWSQTFCPVLYAWNDLGSRFWPRYVKVGSCFSKRSCSVPEGMVCKPSKSVHLTVLRWRCQRRGGQRCGWIPIQYPIISECKCSC
Effect on BMP-2-induced reporter activity ([3]; 500 ng/ml of noggin, 100 ng/ml of BMP-2): completely blocked
Inhibition of BMP-2-induced luciferase activity ([3]; dose-response): inhibit BMP-2-induced luciferase activity in a dose-dependent manner

B2: PTH: Parathyroid Hormone (protein, UniProt P01270 32-115, looked up)
Parathyroid hormone: SVSEIQLMHNLGKHLNSMERVEWLRKKLQDVHNFVALGAPLAPRDAGSQRPRKKEDNVLVESHEKSLGEADKADVNVLTKAKSQ
modifications: Parathyroid hormone
Luciferase Activity ([1]; PTH 0.195 ng/ml, 2T3 C-17 cells): 0.05
Luciferase Activity ([1]; PTH 0.39 ng/ml, 2T3 C-17 cells): 0.053
Luciferase Activity ([1]; PTH 0.78 ng/ml, 2T3 C-17 cells): 0.047
Luciferase Activity ([1]; PTH 1.56 ng/ml, 2T3 C-17 cells): 0.05
Luciferase Activity ([1]; PTH 3.125 ng/ml, 2T3 C-17 cells): 0.05
Luciferase Activity ([1]; PTH 6.25 ng/ml, 2T3 C-17 cells): 0.048
Luciferase Activity ([1]; PTH 12.5 ng/ml, 2T3 C-17 cells): 0.051
Luciferase Activity ([1]; PTH 25 ng/ml, 2T3 C-17 cells): 0.053
Luciferase Activity ([1]; PTH 50 ng/ml, 2T3 C-17 cells): 0.053
Luciferase Activity ([1]; PTH 100 ng/ml, 2T3 C-17 cells): 0.055
